Results: patent US9428515B2, “Benzimidazole derivatives” (Boehringer Ingelheim International GmbH, priority 2014, dated 2016)

Molecular target: T1, BRD4-BD1 (Homo sapiens, UniProt O60885)
T1 construct: 15 nM GST-BRD4-BD1 protein (aa 44-168)
Assay: BRD4-H4 tetraacetylated peptide inhibition AlphaScreen
Type: binding
Conditions: 15 nM GST-BRD4-BD1 (aa 44-168), 15 nM biotinylated Acetyl-Histone H4 (Lys5, 8, 12, 16) peptide, 30 min at RT
Description: Biological Methods BRD4-H4 Tetraacetylated Peptide Inhibition AlphaScreen
Compounds are diluted in serial dilution 1:5 in assay buffer from 10 mM stock in DMSO (100 μM start concentration) in white OptiPlate-384 (PerkinElmer). A mix consisting of 15 nM GST-BRD4-BD1 protein (aa 44-168) or 150 nM GST-BRD4-BD2 (aa 333-460) and 15 nM biotinylated Acetyl-Histone H4 (Lys5, 8, 12, 16) peptide is prepared in assay buffer (50 mM HEPES pH=7.4; 25 mM NaCl; 0.05% Tween 20; 0.1% bovine serum albumin (BSA); 10 mM dithiothreitol (DTT)). 6 μl of the mix is added to the compound dilutions. Subsequently, 6 μl of premixed AlphaLISA Glutathione Acceptor Beads and AlphaScreen Streptavidin Donor Beads from PerkinElmer (in assay buffer at a concentration of 10 μg/ml each) are added and the samples are incubated for 30 min at RT in the dark (shaking 300 rpm). Afterwards, the signal is measured in a PerkinElmer Envision HTS Multilabel Reader using the AlphaScreen protocol from PerkinElmer.
Each plate contains negative controls where biotinylated Acetyl-Histone H4 peptide and GST-BRD4-BD1 or GST-BRD4-BD2 are left out and replaced by assay buffer. Negative control values are entered as low basis value when using the software GraphPad Prism for calculations. Furthermore, a positive control (probe molecule JQ1+ with protein/peptide mix) is pipetted. Determination of IC50 values are carried out using GraphPad Prism 3.03 software (or updates thereof).

Row | IC50 | Compound
1 | 50 nM | COC[C@H](C)n1c(-c2cc(C)c(=O)n(C)c2)nc2cc3c(cc21)N(C)C(=O)C3(C)C [I-1, 2-(1,5-Dimethyl-6-oxo-1,6-dihydro-pyridin-3-yl)-3-((S)-2-methoxy-1-methyl-ethyl)-5,7,7-trimethyl-5,7-dihydro-3H-imidazo[4,5-f]indol-6-one]
2 | 9 nM | CCc1nn(C)c2cc3c(cc12)nc(-c1cc(C)c(=O)n(C)c1)n3[C@@H](C)c1ccccc1 [III-3]
3 | 4 nM | Cc1cc(-c2nc3cc4c(cc3n2[C@@H](C)c2ccccc2)N(C)C(=O)C4(C)C)cn(C)c1=O [I-7]
4 | 15 nM | Cc1nc(-c2nc3cc4c(cc3n2[C@@H](C)c2ccccc2)N(C)C(=O)C4(C)C)cn(C)c1=O [I-6]
5 | 2 nM | CCN1C(=O)C(C)(C)c2cc3nc(-c4cc(C)c(=O)n(C)c4)n([C@@H](C)c4ccccc4)c3cc21 [I-8]
6 | 9 nM | Cc1nc(-c2nc3cc4c(cc3n2[C@@H](C)c2ccccc2)N(C(C)C)C(=O)C4(C)C)cn(C)c1=O [I-5]
7 | 44 nM | Cc1cc(-c2nc3cc4c(cc3n2Cc2ccccn2)N(C)C(=O)C4(C)C)cn(C)c1=O [I-3]
8 | 3 nM | Cc1cc(-c2nc3cc4c(cc3n2[C@@H](C)c2ccccc2)N(C(C)C)C(=O)C4(C)C)cn(C)c1=O [I-2, 2-(1,5-Dimethyl-6-oxo-1,6-dihydro-pyridin-3-yl)-5-isopropyl-7,7-dimethyl-3-((S)-1-phenyl-ethyl)-5,7-dihydro-3H-imidazo[4,5-f]indol-6-one]
9 | 5 nM | Cc1cc(-c2nc3cc4c(C)nn(C)c4cc3n2[C@@H](C)c2ccccc2)cn(C)c1=O [III-1]
10 | 17 nM | Cc1cc(-c2nc3cc4c(cc3n2[C@@H](C)c2ccccc2)N(C(C)C)C(=O)C42CC2)cn(C)c1=O [I-9]
11 | 22 nM | COC[C@H](C)n1c(-c2cc(C)c(=O)n(C)c2)nc2cc3c(cc21)N(C(C)C)C(=O)C3(C)C [I-4]
12 | 13 nM | Cc1cc(-c2nc3cc4c(cc3n2[C@@H](C)c2ccccc2)C(=O)N(C)C4(C)C)cn(C)c1=O [II-1]
13 | 8 nM | CCn1nc(C)c2cc3nc(-c4cc(C)c(=O)n(C)c4)n([C@@H](C)c4ccccc4)c3cc21 [III-2]
